The values below are quoted from earlier work in patent US10940187B2, “Method of treatment of schizophreniform disorder” (Curemark, LLC, priority 2011, dated 2021).

Each structure is given as a SMILES string. Where two headings read alike, the source gives them in different places.

The test system of one data set is ckr mice. The following applies: for spontaneous hyperactivity of ckr mice: dose dependent effects.
The test system of the next data set is control mice. Conditions: monitored during the dark cycle.

As to `O=C1CCc2ccc(OCCCCN3CCN(c4cccc(Cl)c4Cl)CC3)cc2N1` [aripiprazole], the “locomotor activity, post-hoc Dunnett's test vs vehicle control” value in the data set with ckr mice (15 mg/kg) is “did not significantly suppress”; with ckr mice (30 mg/kg), “significantly suppressed”; with ckr mice (doses of 3-10 mg/kg), “significantly reduced”. Besides, the motor activity result with ckr mice (15 mg/kg) is “increase in motor activity”; with ckr mice (30 mg/kg), “suppression of motor activity”; in the data set on ckr mice (lower doses 1.67-10 mg/kg), “dose-dependent reduction”. In the data set with ckr mice (30 mg/kg), the “overall suppression of motor function (observational)” value is reported as “severe sedation”. For the same molecule, the “locomotor activity of ckr mice” value in the data set with ckr mice (across doses, F6,54_4.626, P_0.001) was “dose-dependently reduced”. For the same molecule, the “ED50 for initial suppression of locomotor activity” value in the data set on ckr mice (curve fitted to subset of data, doses 1.67 to 10 mg/kg, fit failed to correlate with observed values) was 2.695 mg/kg. Moreover, the “spontaneous hyperactivity of ckr mice” value in the data set with ckr mice is “dose-dependently suppressed”. The “shape of dose-response on hyperactivity” value in the data set on ckr mice (suppression at low doses, little effect at intermediate doses, suppression at high doses) is listed as “tri-phasic dose-response”.
Turning to `O=C1Cc2cc(CCN3CCN(c4nsc5ccccc45)CC3)c(Cl)cc2N1` [ziprasidone], the “spontaneous hyperactivity of ckr mice” value with ckr mice is “dose-dependently suppressed”.
With `O=C(CCCN1CCC(O)(c2ccc(Cl)cc2)CC1)c1ccc(F)cc1` [haloperidol], in the data set on control mice, the “locomotor activity of control mice” value is on record as “did not produce a significant suppression”. Besides, in the data set with ckr mice, the “spontaneous hyperactivity of ckr mice” value is recorded as “dose-dependently suppressed”.
As for `Cc1nc2n(c(=O)c1CCN1CCC(c3noc4cc(F)ccc34)CC1)CCCC2` [risperidone], in the data set with ckr mice, the “spontaneous hyperactivity of ckr mice” value is reported as “dose-dependently suppressed”.
Turning to `OCCOCCN1CCN(C2=Nc3ccccc3Sc3ccccc32)CC1` [quetiapine], the “spontaneous hyperactivity of ckr mice” value in the data set on ckr mice is on record as “dose-dependently suppressed”.
